Test results from patent US6444812B1, “Intermediate compounds in the preparation of farnnesyl transferase inhibiting 1,8-annelated quinolinone derivatives substituted with N-or C linked imidazoles” (Janssen Pharmaceutica N.V., priority 1997, dated 2002).

Key:
[1] = system: NIH 3T3 cells transformed by the T24 activated human H-ras gene; test: Ras-Transformed Cell Phenotype Reversion Assay; format: cell-based, mouse; conditions: cell counts after 72 hours proliferation
From the text: “Ras-Transformed Cell Phenotype Reversion Assay”
Insertion of activated oncogenes such as the mutant ras gene into mouse NIH 3T3 cells converts the cells to a transformed phenotype. The cells become tumorigenic, display anchorage independent growth in semi-solid medium and lose contact inhibition. Loss of contact inhibition produces cell cultures which no longer form uniform monolayers. Rather, the cells pile up into multicellular nodules and grow to very high saturation densities in plastic tissue culture dishes. Agents such as protein farnesyl transferase inhibitors which revert the ras transformed phenotype restore the uniform monolayer growth pattern to cells in culture. This reversion is easily monitored by counting the number of cells in tissue culture plates. Transformed cells will achieve higher cell numbers than cells which have reverted to an untransformed phenotype. Compounds which revert the transformed phenotype should produce antitumor effects in tumors bearing ras gene mutations.
Compounds are screened in tissue culture in NIH 3T3 cells transformed by the T24 activated human H-ras gene. Cells are seeded at an initial density of 200,000 cells per well (9.6 cm^2 surface area) in six-well cluster tissue culture plates. Test compounds are immediately added to 3.0 ml cell growth medium in a 3.0 μl volume of DMSO, with a final concentration of DMSO in the cell growth medium of 0.1%. The test compounds are run at concentrations of 5, 10, 50, 100, and 500 nM along with a DMSO treated vehicle control. […] Then the cells are detached in 1.0 ml trypsin-EDTA cell dissociation medium and counted on a Coulter particle counter.
Cell numbers expressed as cells per well are measured using a Coulter Particle Counter.
All cell counts were corrected for the initial cell input density by subtracting 200,000.
Control cell counts=[cell counts from cells incubated with DMSO vehicle−200,000]
Test compound cell counts=[cell counts from cells incubated with test compound−200,000]. [formula]

[2] = system: T24 activated human H-ras gene transformed NIH 3T3 fibroblast cells (T24 cells); test: Farnesyl Protein Transferase Inhibitor Secondary Tumor Model; format: in vivo, Nude mice; conditions: po, 15 days of treatment
From the text: “Farnesyl Protein Transferase Inhibitor Secondary Tumor Model”
The enzyme farnesyl protein transferase catalyzes the covalent attachment of a farnesyl moiety derived from farnesyl pyrophosphate to the oncogene product p21^ras. This directs p21^ras to attach to plasma membranes. Once attached to plasma membranes, mutant or oncogenic forms of p21^ras will provide a signal for the transformation and uncontrolled growth of malignant tumor cells. Therefore, inhibitors of protein farnesyltransferase will prevent the membrane attachment of p21^ras and inhibit growth of ras-transformed tumors.
Nude mice are inoculated with 1×10^6 of T24 activated human H-ras gene transformed NIH 3T3 fibroblast cells (T24 cells), subcutaneously in the inguinal region. After three days to allow tumors to become established, treatment with test compounds is begun via the oral route. The test compounds are dissolved in a 20% β-cyclodextrin in 0.1 N HCl solution and administered orally as 0.1 ml of compound solution per 10 g mouse body weight. Routinely used doses are 6.25, 12.5 and 25 mg/kg. Body weights and tumor sizes are monitored during the ensuing 15 days of treatment. At the end of treatment, animals are sacrificed and tumors are weighed.
The “mean vehicle treated tumor weight” is defined as the mean tumor weight from 10 to 15 mice […].
The “mean tumor weight” is defined as the mean tumor weight from 10 to 15 mice […]. [formula]

[3] = target: T1, Human farnesyl protein transferase (Homo sapiens, UniProt P49354+P49356); test: In Vitro Assay for Inhibition of Farnesyl Protein Transferase (scintillation proximity assay); format: biochemical; conditions: concentration of test compound producing 50% inhibition of enzyme activity; 60 min at 37° C.
T1 construct: grown as monolayer cell cultures were used as a source of human enzyme; endogenous in cells; host or cells: KHOS (Kirsten virus transformed human osteosarcoma) cells from ATCC, grown as solid tumors in nude mice or as monolayer cultures; The enzyme was partially purified by a 30-50% ammonium sulfate cut and Q Fast Flow Sepharose
Method: “In Vitro Assay for Inhibition of Farnesyl Protein Transferase”
Human farnesyl protein transferase was prepared essentially as described (Y. Reiss et al., Methods: A Companion to Methods in Enzymology, vol. 1, 241-245, 1990). Kirsten virus transformed human osteosarcoma (KHOS) cells (American Type Culture Collection, Rockville, Md., USA) grown as solid tumors in nude mice or grown as monolayer cell cultures were used as a source of human enzyme. Briefly, cells or tumors were homogenized in buffer containing 50 mM Tris, 1 mM EDTA, 1 mM EGTA and 0.2 mM phenylmethylsulfonylfluoride (pH 7.5). The homogenates were centrifuged 28,000×g for 60 min and the supernatants collected. […] Fractions containing 4 to 5 ml volumes of column eluate were collected and analyzed for farnesyl protein transferase activity. […]
The activity of farnesyl protein transferase was measured using the Farnesyl Transferase [^3H] […] The amount of [^3H]-farnesyl-(Cys)-biotin lamin B peptide synthesized in the presence or absence of test compounds was quantified as cpm by counting on a Wallac Model 1480 Microbeta Liquid Scintillation Counter. […] The protein farnesyl transferase activity observed in the presence of test compound was normalized to farnesyl transferase activity in the presence of 10% DMSO and expressed as percent inhibition. […]

Row | SMILES | melting point | IC50 ([1]; NIH3T3) | other results
1 | Cn1cncc1C(c1ccc(Cl)cc1)c1cc2c3c(c1)c(-c1cccc(Cl)c1)cc(=O)n3CC2.O (racemic) (hydrate or solvate) [Compound 6, (±)-6-(3-chlorophenyl)-8-[(4-chlorophenyl)(1-methyl-1H-imidazol-5-yl)methyl]-1,2-dihydro-4H-pyrrolo[3,2,1-ij]quinolin-4-one monohydrate] | 147 °C |  | 
2 | Cn1cncc1C(O)(c1ccc(Cl)cc1)c1cc2c3c(c1)c(-c1cccc(Cl)c1)cc(=O)n3CC2 (racemic) [Compound 5, (±)-6-(3-chlorophenyl)-8-[(4-chlorophenyl)hydroxy(1-methyl-1H-imidazol-5-yl)methyl]-1,2-dihydro-4H-pyrrolo[3,2,1-ij]quinolin-4-one] | 213.6 °C | 7.8 nM | 
3 | Cn1cncc1C(c1ccc(Cl)cc1)c1cc2c3c(c1)c(-c1cccc(Cl)c1)cc(=O)n3CC2 (racemic) [Compound 6, (±)-6-(3-chlorophenyl)-8-[(4-chlorophenyl)(1-methyl-1H-imidazol-5-yl)methyl]-1,2-dihydro-4H-pyrrolo[3,2,1-ij]quinolin-4-one monohydrate] |  | 32 nM | 
4 | Cn1cncc1C(N)(c1ccc(Cl)cc1)c1cc2c3c(c1)c(-c1cccc(Cl)c1)cc(=O)n3CC2 (racemic) [Compound 8, (±)-8-[amino(4-chlorophenyl)(1-methyl-1H-imidazol-5-yl)methyl]-6-(3-chlorophenyl)-1,2-dihydro-4H-pyrrolo[3,2,1-ij]quinolin-4-one] |  | 6.4 nM | % reduction final tumor weight ([2]; 6.25 mg/kg bid): 41%; % reduction final tumor weight ([2]; 12.25 mg/kg bid): 44%; % reduction final tumor weight ([2]; 25 mg/kg bid): 49%
5 | Cn1cncc1C(O)(c1ccc(Cl)cc1)c1cc2c3c(c1)c(-c1cccc(Cl)c1)cc(=O)n3CO2 (racemic) [Compound 15, (±)-6-(3-chlorophenyl)-8-[(4-chlorophenyl)hydroxy(1-methyl-1H-imidazol-5-yl)methyl]-2H,4H-oxazolo[5,4,3-ij]quinolin-4-one] |  | 48 nM | 
6 | Cn1cncc1C(c1ccc(Cl)cc1)c1cc2c3c(c1)c(-c1cccc(Cl)c1)cc(=S)n3CC2 (racemic) [Compound 27, (±)-6-(3-chlorophenyl)-8-[(4-chlorophenyl)(1-methyl-1H-imidazol-5-yl)methyl]-1,2-dihydro-4H-pyrrolo[3,2,1-ij]quinoline-4-thione] |  | 37.1 nM | 
7 | Cc1nc2cc(C(O)(c3ccc(Cl)cc3)c3cncn3C)cc3c(-c4cccc(Cl)c4)cc(=O)n1c23 (racemic) [Compound 30, (±)-6-(3-chlorophenyl)-8-[(4-chlorophenyl)hydroxy(1-methyl-1H-imidazol-5-yl)methyl]-2-methyl-4H-imidazo[4,5,1-ij]quinolin-4-one] | 170 °C | 373 nM | 
8 | Cn1cncc1C(O)(c1ccc(Cl)cc1)c1cc2nc(-c3ccccc3)n3c(=O)cc(-c4cccc(Cl)c4)c(c1)c23 (racemic) [Compound 31, (±)-6-(3-chlorophenyl)-8-[(4-chlorophenyl)hydroxy(1-methyl-1H-imidazol-5-yl)methyl]-2-phenyl-4H-imidazo[4,5,1-ij]quinolin-4-one] |  | > 500 nM | 
9 | Cn1cncc1C(O)(c1ccc(Cl)cc1)c1cc2[nH]c(=O)n3c(=O)cc(-c4cccc(Cl)c4)c(c1)c23 (racemic) [Compound 34, (±)-6-(3-chlorophenyl)-8-[(4-chlorophenyl)hydroxy(1-methyl-1H-imidzol-5-yl)methyl]-4H-imidazo[4,5,1-ij]quinoline-2,4(1H)-dione] |  |  | IC50 [1]: > 500 nM
10 | Cn1cncc1C(O)(c1ccc(Cl)cc1)c1cc2nnn3c(=O)cc(-c4cccc(Cl)c4)c(c1)c23 (racemic) [Compound 35, (±)-6-(3-chlorophenyl)-8-[(4-chlorophenyl)hydroxy(1-methyl-1H-imidazol-5-yl)methyl]-4H-1,2,3-triazolo[4,5,1-ij]quinolin-4-one] | 226 °C | > 500 nM | 
11 | O=c1cc(-c2cccc(Cl)c2)c2cc(C(c3ccc(Cl)cc3)n3ccnc3)cc3c2n1CCC3 (racemic) [Compound 36, (±)-7-(3-chlorophenyl)-9-[(4-chlorophenyl)-1H-imidazol-1-ylmethyl]-2,3-dihydro-1H,5H-benzo[ij]quinolizin-5-one] |  |  | IC50 [3]: 21 nM
12 | O=C1CC(c2cccc(Cl)c2)c2cc(C(c3ccc(Cl)cc3)n3ccnc3)cc3c2N1CCC3 (racemic) [Compound 37, (±)-7-(3-chlorophenyl)-9-[(4-chlorophenyl)-1H-imidazol-1-ylmethyl]-2,3,6,7-tetrahydro-1H,5H-benzo[ij]quinolizin-5-one] | 93.6 °C |  | 
13 | Cn1cncc1C(N)(c1ccc(Cl)cc1)c1cc2c3c(c1)c(-c1cccc(Cl)c1)cc(=O)n3CC2 (centres unmarked) [Compound 10, (B)-8-[amino(4-chlorophenyl)(1-methyl-1H-imidazol-5-yl)methyl]-6-(3-chlorophenyl)-1,2-dihydro-4H-pyrrolo[3,2,1-ij]quinolin-4-on] |  |  | IC50 [1]: 3.2 nM
14 | O=c1cc(-c2cccc(Cl)c2)c2cc(C(c3ccc(Cl)cc3)n3ccnc3)cc3c2n1CC3 (centres unmarked) [Compound 38] |  |  | IC50 [3]: 15 nM
